Converted amounts (≈) assume the structure as drawn.
Assay: physchem

solubility: 73 µg/mL (≈ 354 µM)
SMILES: CC(C)Cc1ccc(C(C)C(=O)O)cc1 (stereo not shown) [Ibuprofen]

From US7951399B2, “Process for activation of drugs in a vibrational mill” (Eurand Pharmaceuticals Ltd., priority 2001, dated 2011)
